Results published in patent EP0848957A1, “Fas LIGAND SOLUBILIZATION INHIBITOR” (KANEBO LTD., priority 1995, dated 1997).

Columns and labels:
[1] = system: hFas L/BHK-21 (BHK-21 cells in which human Fas L cDNA was transfected); experiment: Test for inhibition of Fas L solubilization (sFas L in culture supernatant by sandwich-ELISA); type: cell-based; conditions: for IC50: BHK-21, sFas L secretion inhibition at 5, 2.5, 1.25, 0.625 µM, probit method; for inhibition at 5 µM: Homo sapiens, BHK-21, 24 h, incubated 24 hours at 37°C, read-out: aFas L secretion inhibition rate (%)
Method: hFas L/BHK-21 (BHK-21 cells in which human Fas L cDNA was transfected)(3.5 x 10^5) was suspended in 1ml of RPMI 1640 culture medium containing 10% fetal bovine serum, and in 24 wells culture plate (Falcon 3047, Becton Dickenson Co., Ltd.) each test sample adjusted with RPMI 1640 containing 10% fetal bovine serum at the final concentration 5, 2.5, 1.25, and 0.625 µM was incubated under 5% carbon dioxide atmosphere at 37°C for 24 hours, to obtain a culture supernatant.
The concentration of sFas L in the supernatant thus obtained was quantitatively analyzed by the sandwich-ELISA method as shown below.
The concentration of anti Fas L antibody (NOK3)(see preparation 17) was adjusted to 10µg/ml with 0.05M sodium carbonate-sodium hydrogen carbonate buffer solution (pH 9.6), and each 50µl thereof was poured in each well of a 96-wells microplate (Immunolon 2, Dinatech Co., Ltd.) and left it overnight at 4°C to make the solid phase. Each well was washed twice with 300 µl of a washing solution consisting of a physiological saline solution adjusted at pH 7.4 with a phosphate buffer solution, containing 0.05% of Tween 20 (polyoxyethylene sorbitan monolaurate)(abbreviated as T-PBS), and then to it was added 300µl of PBS (pH 7.4) containing bovine serum albumin (abbreviated as BSA, Wako Chemical Co., Ltd), and it was left for 2 hours at 37°C to remove the supernatant.
Then, the culture supernatant (50µl) containing a test sample were added to each well, and incubated for one hour at room temperature. After incubation, each well was washed twice with 300µl of T-PBS (pH7.4).
The concentration of anti Fas L antibody (NOK1) labeled with biotin (see preparation 18) was adjusted to 5µg/ml by diluting with PBS (pH 7.4) containing 1% BSA, and 50µl thereof was added to the solution prepared above. The solution was reacted for one hour at room temperature, and washed twice with 300µl of T-PBS (pH 7.4).
And then, streptoavidin-peroxidase (Amasham Lab.) was diluted 1000 times with PBS (pH 7.4) containing 1% of BSA, and 50µl thereof was added to it. The solution was incubated for 30 minutes at room temparature and was washed twice with 300µ of T-PBS (pH 7.4).
Further, 100µl of 0.15M citric acid-sodium phosphate buffer solution (pH 5.0) containing hydrogen peroxide and o-phenylenediamine (former concentration:0.015 w/v%, latter concentration:0.2mg/ml) was added to each well and incubated for 10 minutes at room temperature.
After incubation, 50µl of 2 N sulfuric acid was added to each well to quench the reaction, and the absorbance at 490 nm was measured by Softmax (Molecular Device Co., Ltd.)
On the other hand, by measuring the absorbance of the sFas L solution of which the concentration was known, as a sample instead of the culture supernatant, the calibration curve was detected based on 4-logistic parameter analysis, and based on it the concentration (X) of sFas L in the culture supernatant was calculated.
As a control, by using the concentration (A) of sFas L in the culture supernatant in case that the test sample was not added, based on the concentration (X) of sFas L in the culture supernatant in case that the sample was added, sFas secretion inhibition rate (%) at 5µM was calculated by using the following formula sFas L secretion inhibition rate (%) = (1-X/A) x 100 [formula]

[2] = system: GVHD induced mouse; experiment: Prevention of the mortality of GVHD induced mouse; type: in vivo, CBF1 mouse; conditions: splenocytes 1x10^8; after the death of all mice of the drug non-administered group; 3 weeks observation
Method: GVHD was introduced into CBF1 mouse in the same manner as in Test example 2, except for the numbers of the injected splenocytes, 1x10^8, and the test sample administered group was compared with the drug non-administered group and the non-treated group.
The effect of test samples was evaluated by the mortality of mouse for 3 weeks after the first introduction of the splenocytes.

[3] = system: GVHD induced mouse; experiment: Recovery test of GVHD induced mouse; type: in vivo, CBF1 mice; conditions: 2mg / mouse / day subcutaneously every day for 2 weeks
Method: CBF1 mice (F1 mice of BALB/c and C57BL/6) were injected with splenocytes (5x10^7) of C57BL/6 mouse, and a week later were again injected with splenocytes 5x10^7 to induce GVHD into a mouse.
A test sample was suspended in 0.5% CMC solution (test sample 10mg vs the CMC solution 1ml), 2mg of the test sample / mouse / day was subcutaneously administered every day for 2 weeks beginning from injection of splenocytes to the above GVHD induced mice, and this group was compared with the GVHD induced group in which any test sample was not administered (no drug administered group) and the GVHD non-induced group (non-treated group).
The body weight of mice (g) was measured every week a week later after the first injection of splenocytes, for 6 weeks, and the total IgE amount (ng/ml) was measured every week a week later after the first injection of splenocytes, for 9 weeks, and the degree of GVHD was evaluated by change of day.

[4] = Toxicity after oral administration (mortality); type: in vivo; conditions: 3,000mg/kg:body weight, orally administered
Method: And a compound of the generic formula (I) or its pharmaceutically acceptable salt was low in toxicity. For example, when compound 4a ( 3,000mg/kg:body weight) was orally administered, the mortality was not found. Therefore, a compound of the generic formula (I) or its pharmaceutically acceptable salt is useful for preventing and treating the diseases in which apoptosis caused by binding the solubilized Fas L with Fas is considered to participate, for example, fulminant hepatitis, GVHD, AIDS, autoimmune diseases, etc.

| SMILES | IC50 [1] [nM] | inhibition at 5 µM [1] [%] | other results |
| --- | --- | --- | --- |
| CNC(=O)[C@H](Cc1ccccc1)NC(=O)[C@H](CC(C)C)[C@H](CSc1cccs1)C(=O)NO [Test sample D, [4-(N-hydroxyamino)-2(R)-isobutyl-3(S)-(2-thienylthiomethyl)succinyl]-L-phenylalanine-N-methylamide] | 1600 | > 70 |  |
| NS(=O)(=O)c1ccc(CCNC(=O)[C@H](CC2CCCCC2)NC(=O)[C@H](CCCc2ccccc2)CC(=O)NO)cc1 [Test sample G, [4-(N-hydroxyamino)-2(R)-(3-phenylpropyl)succinyl]-L-3-cyclohexylalanine-N-[2-(4-sulfonylamidophenyl)ethyl]amide] | 1100 | > 70 |  |
| CNC(=O)[C@H](Cc1cccc2c1CCCC2)NC(=O)[C@H](CC(C)C)C(C)C(=O)NO (stereo partly drawn) [Test sample H, [4-(N-hydroxyamino)-2(R)-isobutyl-3-methylsuccinyl]-L-3-(5,6,7,8-tetrahydro-1-naphthyl)alanine-N-methylamide] |  | 57 |  |
| CNC(=O)[C@H](Cc1cccc2ccccc12)NC(=O)[C@H](CC(C)C)C(C)C(=O)NO (stereo partly drawn) [Test sample I, [4-(N-hydroxyamino)-2(R)-isobutyl-3-methylsuccinyl]-L-3-(1-naphthyl)alanine-N-methylamide] |  | 50 |  |
| CNC(=O)[C@H](Cc1ccc(OC)cc1)NC(=O)[C@@H](CC(=O)NO)CC(C)C [Test sample A, [4-(N-hydroxyamino)-2(R)-isobutylsuccinyl]-L-O-methyltyrosine-N-methylamide] |  | 47 |  |
| CNC(=O)[C@H](Cc1ccc(OC)cc1)NC(=O)[C@H](CC(C)C)[C@H](C)C(=O)NO [Test sample C, [4-(N-hydroxyamino)-2(R)-isobutyl-3(S)-methylsuccinyl]-L-O-methyltyrosine-N-methylamide] | 1500 | > 70 |  |
| CNC(=O)[C@@H](NC(=O)[C@@H](CC(=O)NO)CC(C)C)c1ccc2ccccc2c1 [Test sample F, [4-(N-hydroxyamino)-2(R)-isobutylsuccinyl]-L-2-naphthylglycine-N-methylamide] |  | 35 |  |
| CNC(=O)[C@@H](NC(=O)[C@H](CC(C)C)[C@H](C)C(=O)NO)c1ccccc1 [Test sample E, [4-(N-hydroxyamino)-2(R)-isobutyl-3(S)-methylsuccinyl]-L-phenylglycine-N-methylamide] |  | 29 | survival rate [2]: 90%; decrease of body weight caused by the induced GVHD ([3]; body weight measured weekly for 6 weeks): clearly prohibited; increase of total IgE amount caused by the induced GVHD ([3]; total IgE measured weekly for 9 weeks): clearly prohibited; mortality [4]: not found |
| CNC(=O)[C@H](Cc1ccccc1)NC(=O)[C@H](CC(C)C)[C@H](CSc1ccccc1)C(=O)NO [Test sample B, [4-(N-hydroxyamino)-2(R)-isobutyl-3(S)-phenylthiomethylsuccinyl]-L-phenylalanine-N-methylamide] | 2200 | > 70 |  |
